According to patent US20200046648A1, “POLYMERIC NANOPARTICLES COMPRISING SALINOMYCIN” (priority 2018, published 2020):
Entries after “also recorded” stand apart in the source; their conditions may differ.

Key:
[1] = Preliminary toxicity study, histopathology by H & E staining; type: in vivo, CD2 male mice
Protocol: (§1) A study was conducted in wild-type CD2 male mice to evaluate and compare the effects of salinomycin (SAL) at three different concentrations and compared to a formulation of SAL in biodegradable tetra-block polymeric nanoparticles.
(§2) MICE 20-25 g male CD2 mice between the ages 6 to 8 weeks from Taconic were used. The animals were acclimatized for five days before initiating the study.
(§3) Animals were injected intravenously either with 5.0 mg/kg, 8.5 mg/kg, or 12.5 mg/kg of SAL or SAL-NPs once, according to Table 1 below. Control animals were treated with PBS.
(§4) Tolerability of the drug by animals was measured via clinical, weight and behavioral changes. The compounds were administered once on day 1. Seven days following administration, all animals were euthanized and blood was collected for a complete blood chemistry and hematology analysis (see Table 2 and 3 below). Post mortem was conducted to examine all of the animals. Different organs (brain, heart, lung, liver, spleen, stomach, intestine, kidney, and skin) were also isolated for histo-pathological evaluation by H & E staining.
All the animals did well in the study, except the Salinomycin 12.5 mg/kg group. The histopathological studies were conducted on brain, heart, lung, liver, spleen, stomach, intestine, kidney, muscles, and skin tissues by H & E staining. […]

[2] = Preliminary toxicity study, post mortem observations; type: in vivo, CD2 male mice; conditions: day 7
Protocol: as §1, §2, §3, §4
On day 7 of the study, a post mortem inspection was conducted on each and every animal. […] There was slight enlargement observed on the fascia around the testis.

[3] = Comparative toxicity in wild-type mice; type: in vivo
Protocol: The effect of nanoparticles in mitigating the toxicity of salinomycin was examined in wild-type mice. Different doses of salinomycin alone (5, 7.5, 10, 12.5 and 15 mg/kg) or salinomycin-nanoparticles (SAL-NP) (5, 7.5, 10, 12.5 and 15 mg/kg) were injected into wild-type mice. Three mice were used in each group of salinomycin alone and salinomycin-NP groups, body weights, food and water uptake were measured every day for 22 days.

CD44+/CD24low cells = assay: Flow cytometric identification of cancer stem cells from a TNBC patient; type: cell-based; conditions: TNBC patient tumor derived spheroid cultures; 72 hours; FACS
Protocol: Flow cytometric identification of cancer stem cells (CSCs) by CD24-PE & CD44-FITC antibody staining in triple negative breast cancer (TNBC) patient tumor derived cells cultured as spheroid cultures and then treated with the indicated drugs for72h. Following 72 hours of treatment of the mammospheres, cells were dissociated with Acutase treatment. Following washing, cells were stained with CD24-PE & CD44-FITC antibody, washed and analyzed by FACS. The subpopulation of CD44+/CD24-low cells were gated and quantified.

Which “organ toxicity (conclusion)” value ([1]; 5, 8.5, 12.5 mg/kg i.v. once, day 7) does the source give for `CC[C@@H](C(=O)[C@@H](C)[C@@H](O)[C@H](C)[C@@H]1O[C@@H]([C@@H](CC)C(=O)O)CC[C@@H]1C)[C@H]1O[C@]2(C=C[C@@H](O)[C@]3(CC[C@@](C)([C@H]4CC[C@](O)(CC)[C@H](C)O4)O3)O2)[C@H](C)C[C@@H]1C` [SAL, salinomycin] here?
The value was “toxicity to the liver, kidney, testis, and epididymis”.

And the “microscopical examination of all the tissues” value ([1]; mouse, in vivo)?
Its value is “changes were observed in the kidney, liver, testis and epididymis”.

And the Post-mortem findings ([2]; 5 mg/kg i.v. once)?
Its Post-mortem findings is “did not show any observable changes; also recorded: No Changes observed”.

And the Post-mortem findings ([2]; 8.5 mg/kg i.v. once)?
Its Post-mortem findings is “slightly reddish and slightly enlarged testis; also recorded: testis with redness; also recorded: No Changes observed”.

And the Post-mortem findings ([2]; 12.5 mg/kg i.v. once)?
Its Post-mortem findings is “reddening of the fascia surrounding testis; also recorded: Epidydimus enalrged”.

And the survival ([3]; 10 mg/kg)?
Its survival is “five”.

What about the survival ([3]; 12.5 mg/kg) of the same molecule?
Its survival is “three”.

What about the “survival (day of the study)” value ([3]; 15 mg/kg) of the same molecule?
Its value is “died after day 3”.

With `CC(=O)O[C@H]1C(=O)[C@@]2(C)[C@H]([C@H](OC(=O)c3ccccc3)[C@]3(O)C[C@H](OC(=O)[C@H](O)[C@@H](NC(=O)c4ccccc4)c4ccccc4)C(C)=C1C3(C)C)[C@]1(OC(C)=O)CO[C@@H]1C[C@@H]2O` [Paclitaxel] as the molecule, how does the “effect on CD44+/CD24low cells” value (CD44+/CD24low cells) read?
The value was “not much effect”.
